PubChem BioAssay AID330 (DTP/NCI, 2004)
Several values for one entry are separate records, joined by “and”; a condition that tells them apart may be missing. Equal values may be shown once. Toxic doses and inconclusive results are not listed. The calls were made as follows: active = survival T/C of 150% or more; inactive = T/C below 125% in these data.

Tested on: P388 leukemia ip, CD2F1 mice, survival T/C
Assay: NCI In Vivo Anticancer Drug Screen. Data for tumor model P388 Leukemia (intraperitoneal) in CD2F1 (CDF1) mice
Conditions: endpoint: median survival time, higher = longer survival
How it was run: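 Mice carrying the transplanted tumor received test compound or vehicle. Survival was recorded in each group, and the value is the treated-group measurement divided by that of the vehicle-treated control group.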

[1] = dose: 50.0 mg/kg/injection, schedule: Q01DX005 (ip), vehicle: saline with Tween-80
[2] = dose: 100.0 mg/kg/injection, schedule: Q01DX005 (ip), vehicle: saline with Tween-80
[3] = dose: 50.0 mg/kg/injection, schedule: Q01DX009 (ip), vehicle: saline with Tween-80
[4] = dose: 100.0 mg/kg/injection, schedule: Q01DX009 (ip), vehicle: saline with Tween-80
[5] = dose: 200.0 mg/kg/injection, schedule: Q01DX009 (ip), vehicle: saline with Tween-80
[6] = dose: 15.0 mg/kg/injection, schedule: Q01DX005 (ip), vehicle: saline
[7] = dose: 30.0 mg/kg/injection, schedule: Q01DX005 (ip), vehicle: saline
[8] = dose: 60.0 mg/kg/injection, schedule: Q01DX005 (ip), vehicle: saline
[9] = dose: 12.5 mg/kg/injection, schedule: Q04DX003 (ip), vehicle: saline with Tween-80
[10] = dose: 25.0 mg/kg/injection, schedule: Q04DX003 (ip), vehicle: saline with Tween-80
[11] = dose: 50.0 mg/kg/injection, schedule: Q04DX003 (ip), vehicle: saline with Tween-80
[12] = dose: 60.0 mg/kg/injection, schedule: Q01DX005 (ip), vehicle: saline with Tween-80
[13] = dose: 120.0 mg/kg/injection, schedule: Q01DX005 (ip), vehicle: saline with Tween-80
[14] = dose: 240.0 mg/kg/injection, schedule: Q01DX005 (ip), vehicle: saline with Tween-80
[15] = dose: 50.0 mg/kg/injection, schedule: Q01DX009 (ip), vehicle: saline
[16] = dose: 100.0 mg/kg/injection, schedule: Q01DX009 (ip), vehicle: saline
[17] = dose: 200.0 mg/kg/injection, schedule: Q01DX009 (ip), vehicle: saline
[18] = dose: 100.0 mg/kg/injection, schedule: Q04DX002 (ip), vehicle: saline
[19] = dose: 25.0 mg/kg/injection, schedule: Q01DX009 (ip), vehicle: saline
[20] = dose: 25.0 mg/kg/injection, schedule: Q01DX009 (ip), vehicle: saline with Tween-80

Measured: T/C

CO/N=C/c1ccc[n+](C)c1
inactive: [1] 105 % of control | [2] 105 % of control

O=C(NCc1ccco1)C(=O)N/N=C/c1ccccc1O
inactive: [3] 89 % of control | [4] 92 % of control | [5] 92 % of control

CC(C)Oc1nc(N2CCNCC2)nc2c1CCCC2
inactive: [6] 101 % of control | [7] 104 % of control | [8] 111 % of control and 90 % of control

Clc1ccc(N=Cc2cccs2)cc1Cl
inactive: dose: 50.0 mg/kg/injection, schedule: Q01DX009 (ip), vehicle: Klucel (hydroxypropylcellulose) (HPC) 110 % of control | dose: 100.0 mg/kg/injection, schedule: Q01DX009 (ip), vehicle: Klucel (hydroxypropylcellulose) (HPC) 107 % of control | dose: 200.0 mg/kg/injection, schedule: Q01DX009 (ip), vehicle: Klucel (hydroxypropylcellulose) (HPC) 110 % of control

COc1cc(Cc2nnc(NN=C(C)C)[nH]c2=O)cc(OC)c1OC
inactive: dose: 50.0 mg/kg/injection, schedule: Q01DX001 (ip), vehicle: Klucel (hydroxypropylcellulose) (HPC) 115 % of control | dose: 100.0 mg/kg/injection, schedule: Q01DX001 (ip), vehicle: Klucel (hydroxypropylcellulose) (HPC) 98 % of control and 100 % of control | dose: 200.0 mg/kg/injection, schedule: Q01DX001 (ip), vehicle: Klucel (hydroxypropylcellulose) (HPC) 100 % of control and 124 % of control | dose: 400.0 mg/kg/injection, schedule: Q01DX001 (ip), vehicle: Klucel (hydroxypropylcellulose) (HPC) 105 % of control and 116 % of control

Cc1c(CNc2ccc(C(=O)NC(CC(=O)O)CC(=O)O)cc2)ccc2nc(N)nc(N)c12
inactive: [9] 118 % of control | [10] 113 % of control | dose: 33.0 mg/kg/injection, schedule: Q04DX003 (ip), vehicle: saline sonified 90 % of control | dose: 50.0 mg/kg/injection, schedule: Q04DX003 (ip), vehicle: saline sonified 86 % of control
active: dose: 3.13 mg/kg/injection, schedule: Q04DX003 (ip), vehicle: saline 229 % of control | [11] 159 % of control

O=Cc1ccccc1-c1ccccc1C=O
inactive: dose: 100.0 mg/kg/injection, schedule: Q04DX002 (ip), vehicle: saline with Tween-80 106 % of control | dose: 200.0 mg/kg/injection, schedule: Q04DX002 (ip), vehicle: saline with Tween-80 103 % of control

N#Cc1c(N)nc2c(c1N)CCO2
inactive: [3] 93 % of control | [4] 96 % of control | [5] 99 % of control

COc1ccc2cc1Oc1cc3c(cc1OC)CC[N+](C)(C)C3Cc1ccc(cc1)Oc1c(OC)c(OC)cc3c1C(C2)[N+](C)(C)CC3 (configuration not stated)
inactive: dose: 0.03 mg/kg/injection, schedule: Q01DX009 (ip), vehicle: saline 102 % of control and 106 % of control | dose: 0.07 mg/kg/injection, schedule: Q01DX009 (ip), vehicle: saline 100 % of control and 113 % of control | dose: 0.15 mg/kg/injection, schedule: Q01DX009 (ip), vehicle: saline 105 % of control and 106 % of control and 121 % of control | dose: 0.31 mg/kg/injection, schedule: Q01DX009 (ip), vehicle: saline 105 % of control and 112 % of control and 96 % of control | dose: 0.62 mg/kg/injection, schedule: Q01DX009 (ip), vehicle: saline 118 % of control

ClC(Cl)=[C](Cl)[Hg][C](Cl)=C(Cl)Cl
inactive: dose: 3.13 mg/kg/injection, schedule: Q01DX009 (ip), vehicle: Klucel (hydroxypropylcellulose) (HPC) 105 % of control | dose: 6.25 mg/kg/injection, schedule: Q01DX009 (ip), vehicle: Klucel (hydroxypropylcellulose) (HPC) 100 % of control | dose: 12.5 mg/kg/injection, schedule: Q01DX009 (ip), vehicle: Klucel (hydroxypropylcellulose) (HPC) 97 % of control

COc1ccc(S(=O)(=O)F)cc1C(=O)O
inactive: [12] 114 % of control | [13] 112 % of control | [14] 104 % of control

COc1cc([N+](=O)[O-])ccc1C
inactive: dose: 100.0 mg/kg/injection, schedule: Q04DX003 (ip), vehicle: other 104 % of control | dose: 200.0 mg/kg/injection, schedule: Q04DX003 (ip), vehicle: other 100 % of control | dose: 400.0 mg/kg/injection, schedule: Q04DX003 (ip), vehicle: other 100 % of control

CC(Cc1ccc(O)cc1)NCC(O)c1cc(O)cc(O)c1 (configuration not stated)
inactive: [15] 96 % of control | dose: 66.0 mg/kg/injection, schedule: Q01DX009 (ip), vehicle: saline 99 % of control and 87 % of control | [16] 99 % of control and 100 % of control | dose: 150.0 mg/kg/injection, schedule: Q01DX009 (ip), vehicle: saline 91 % of control and 93 % of control | [17] 112 % of control

N=C(N)Cl
inactive: [6] 100 % of control | [7] 94 % of control | [8] 88 % of control

CN=C([O-])c1c(=O)o[nH][n+]1-c1ccccc1
inactive: [12] 95 % of control | [13] 98 % of control | [14] 94 % of control

c1nnc2c3c4c(sc3ncn12)CCCC4
inactive: [1] 97 % of control | [2] 91 % of control

CS/C(=N/S(=O)(=O)c1ccccc1)NNC(=S)Nc1ccc(C(C)C)cc1
inactive: [15] 94 % of control | [16] 97 % of control | [17] 97 % of control

CCOc1ccc2nc([NH-])sc2c1.CCOc1ccc2nc([NH-])sc2c1.CCOc1ccc2nc([NH-])sc2c1.CCOc1ccc2nc([NH-])sc2c1.[Cl][Rh][Cl]
inactive: dose: 12.5 mg/kg/injection, schedule: Q01DX001 (ip), vehicle: DMSO 102 % of control | dose: 25.0 mg/kg/injection, schedule: Q01DX001 (ip), vehicle: DMSO 102 % of control and 105 % of control | dose: 50.0 mg/kg/injection, schedule: Q01DX001 (ip), vehicle: DMSO 107 % of control and 94 % of control | dose: 100.0 mg/kg/injection, schedule: Q01DX001 (ip), vehicle: DMSO 113 % of control and 124 % of control and 91 % of control

Nc1nc(N)c2nc(CN(CCO)c3ccc(C(=O)NC(CCC(=O)O)C(=O)O)cc3)cnc2n1 (configuration not stated)
inactive: dose: 6.0 mg/kg/injection, schedule: Q01DX009 (ip), vehicle: Klucel (hydroxypropylcellulose) (HPC) 92 % of control
active: dose: 1.0 mg/kg/injection, schedule: Q01DX009 (ip), vehicle: Klucel (hydroxypropylcellulose) (HPC) 190 % of control | dose: 1.2 mg/kg/injection, schedule: Q01DX009 (ip), vehicle: Klucel (hydroxypropylcellulose) (HPC) 153 % of control | dose: 1.8 mg/kg/injection, schedule: Q01DX009 (ip), vehicle: Klucel (hydroxypropylcellulose) (HPC) 181 % of control | dose: 2.0 mg/kg/injection, schedule: Q01DX009 (ip), vehicle: Klucel (hydroxypropylcellulose) (HPC) 205 % of control | dose: 2.6 mg/kg/injection, schedule: Q01DX009 (ip), vehicle: Klucel (hydroxypropylcellulose) (HPC) 195 % of control | dose: 4.0 mg/kg/injection, schedule: Q01DX009 (ip), vehicle: Klucel (hydroxypropylcellulose) (HPC) 204 % of control and 223 % of control

CC(=O)Oc1cc(-c2ccccc2)oc1-c1ccccc1
inactive: [18] 104 % of control | dose: 200.0 mg/kg/injection, schedule: Q04DX002 (ip), vehicle: saline 106 % of control | dose: 400.0 mg/kg/injection, schedule: Q04DX002 (ip), vehicle: saline 98 % of control

CCC1(c2ccccn2)OCC(CBr)O1 (configuration not stated)
inactive: [1] 93 % of control | [2] 100 % of control | dose: 200.0 mg/kg/injection, schedule: Q01DX005 (ip), vehicle: saline with Tween-80 93 % of control

CCOC(=O)c1c[nH]c2oc(/C=N/N3CC(CN4CCOCC4)OC3=O)cc2c1=O (configuration not stated)
inactive: dose: 50.0 mg/kg/injection, schedule: Q01DX005 (ip), vehicle: acid diluted with saline 114 % of control | dose: 100.0 mg/kg/injection, schedule: Q01DX005 (ip), vehicle: acid diluted with saline 118 % of control | [18] 113 % of control

CCCCCCCCCCCCC1(O)OC(=O)C(C)=C1C (configuration not stated)
inactive: [9] 108 % of control | [10] 102 % of control | [11] 106 % of control

O=C1NCCNC1c1ccccc1 (configuration not stated)
inactive: [19] 102 % of control | [15] 102 % of control | [16] 98 % of control | [17] 100 % of control

CC1(C)N=C(N)N=C(N)N1c1ccc(OCCCCNC(=O)c2ccc(S(=O)(=O)F)cc2)c(Cl)c1
active: [20] 150 % of control | [19] 161 % of control | [15] 159 % of control

COc1cc(C)ccc1C1OC(=O)c2c1ccc(OC)c2OC (configuration not stated)
inactive: [20] 106 % of control | [3] 101 % of control | [4] 97 % of control | [5] 108 % of control

COc1ccc(Br)cc1-c1cc2cccc[n+]2o1
inactive: dose: 12.5 mg/kg/injection, schedule: Q01DX009 (ip), vehicle: saline 101 % of control | [19] 109 % of control
